Measured values taken from patent US20110092517A1, “Use of PPAR Delta Ligands for the Treatment or Prevention of Inflammation or Energy Metabolism/Production Related Diseases” (Cerenis Therapeutics S.A. & Nippon Chemiphar Co., Ltd., priority 2009, published 2011).

Key:
human PPARα [1] = target: T1, human PPARα (Homo sapiens, UniProt Q07869); test: GAL4-PPAR chimera receptor transactivation assay in CV-1 cells (Example 3); format: cell-based; conditions: GAL4 DBD-hPPARα LBD chimera, read-out: Transactivation activity GAL 4 DBD-hPPAR LBD (EC50-Um) alpha
T1 construct: human PPARα (amino acids 167-468); expressed in transfected cells; host or cells: CV-1
T1 sequence (Q07869 167-468): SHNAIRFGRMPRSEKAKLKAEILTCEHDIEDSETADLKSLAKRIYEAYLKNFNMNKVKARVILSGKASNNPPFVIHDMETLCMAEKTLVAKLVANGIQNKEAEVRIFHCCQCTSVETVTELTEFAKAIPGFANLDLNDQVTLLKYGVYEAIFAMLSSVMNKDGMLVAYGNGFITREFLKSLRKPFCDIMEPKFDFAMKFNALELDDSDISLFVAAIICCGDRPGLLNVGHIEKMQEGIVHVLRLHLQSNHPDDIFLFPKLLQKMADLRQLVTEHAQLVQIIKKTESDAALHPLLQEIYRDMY
Procedure: (§1) MH100×4-tk-luc (2) was used as the reporter plasmid.
(§2) The luciferase and βGAL activity were measured according to the methods of Umesono, K. et al. (4) with slight modifications. A substrate reagent kit (Picagene, Toyo Ink) was used for the luciferase assay. Assays were performed in duplicate and triplicate for GAL4-chimeras and full-length receptors, respectively. Experiments were repeated at least four times.

human PPARγ1 = target: T2, human PPARγ1 (Homo sapiens, UniProt P37231); test: as above; format: cell-based; conditions: GAL4 DBD-hPPARγ LBD chimera, read-out: Transactivation activity GAL 4 DBD-hPPAR LBD (EC50-Um) gamma
T2 construct: PPARγ1 (amino acids 176-477); expressed in transfected cells; host or cells: CV-1
T2 sequence (P37231 176-477 isoform P37231-2): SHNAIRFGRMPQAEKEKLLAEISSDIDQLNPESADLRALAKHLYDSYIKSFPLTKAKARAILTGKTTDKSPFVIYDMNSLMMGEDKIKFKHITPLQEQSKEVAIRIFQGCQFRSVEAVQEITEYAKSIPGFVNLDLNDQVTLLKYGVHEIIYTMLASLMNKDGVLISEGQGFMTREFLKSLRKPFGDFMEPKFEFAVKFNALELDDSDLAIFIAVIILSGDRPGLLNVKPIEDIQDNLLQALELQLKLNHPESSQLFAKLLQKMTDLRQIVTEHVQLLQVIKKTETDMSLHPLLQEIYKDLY
Procedure: as §1, §2

human PPARδ [2] = target: T3, human PPARδ (Homo sapiens, UniProt Q03181); test: as above; format: cell-based; conditions: GAL4 DBD-hPPARδ LBD chimera, read-out: Transactivation activity GAL 4 DBD-hPPAR LBD (EC50-Um) delta
T3 construct: PPARδ (amino acids 139-441); expressed in transfected cells; host or cells: CV-1
T3 sequence (Q03181 139-441): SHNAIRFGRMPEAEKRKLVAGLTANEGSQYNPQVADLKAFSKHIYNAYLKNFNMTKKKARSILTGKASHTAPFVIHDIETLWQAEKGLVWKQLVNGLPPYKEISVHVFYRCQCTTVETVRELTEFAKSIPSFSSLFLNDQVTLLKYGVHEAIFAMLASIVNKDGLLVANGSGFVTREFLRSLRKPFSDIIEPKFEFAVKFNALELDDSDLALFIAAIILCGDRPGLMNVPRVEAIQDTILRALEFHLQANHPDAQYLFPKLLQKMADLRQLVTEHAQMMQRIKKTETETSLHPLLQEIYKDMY
Procedure: as §1, §2

human PPARα [3] = target: T4, human PPARα (Homo sapiens, UniProt Q07869); test: Full-length receptor transactivation assay (PPREx3-tk-luc, hRXRα) in CV-1 cells; format: cell-based; conditions: full-length hPPARα + RXRalpha, read-out: Transactivation activity FULL-hPPAR + mRXRalpha (EC50-Um) alpha
T4 construct: expressed in transfected cells; host or cells: CV-1
T4 sequence (Q07869 1-468): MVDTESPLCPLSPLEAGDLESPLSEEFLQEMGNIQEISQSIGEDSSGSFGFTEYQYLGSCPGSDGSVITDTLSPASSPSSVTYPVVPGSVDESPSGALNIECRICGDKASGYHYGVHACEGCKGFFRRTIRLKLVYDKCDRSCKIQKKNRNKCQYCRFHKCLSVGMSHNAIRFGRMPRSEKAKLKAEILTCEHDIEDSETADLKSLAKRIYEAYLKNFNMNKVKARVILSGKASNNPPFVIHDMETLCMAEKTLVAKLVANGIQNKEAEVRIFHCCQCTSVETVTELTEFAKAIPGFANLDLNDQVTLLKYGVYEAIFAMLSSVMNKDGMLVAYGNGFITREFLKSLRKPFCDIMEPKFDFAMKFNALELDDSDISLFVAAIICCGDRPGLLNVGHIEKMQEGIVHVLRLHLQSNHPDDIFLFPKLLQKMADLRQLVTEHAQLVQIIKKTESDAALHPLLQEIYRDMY
T4 sequence (P19793 1-462 partner): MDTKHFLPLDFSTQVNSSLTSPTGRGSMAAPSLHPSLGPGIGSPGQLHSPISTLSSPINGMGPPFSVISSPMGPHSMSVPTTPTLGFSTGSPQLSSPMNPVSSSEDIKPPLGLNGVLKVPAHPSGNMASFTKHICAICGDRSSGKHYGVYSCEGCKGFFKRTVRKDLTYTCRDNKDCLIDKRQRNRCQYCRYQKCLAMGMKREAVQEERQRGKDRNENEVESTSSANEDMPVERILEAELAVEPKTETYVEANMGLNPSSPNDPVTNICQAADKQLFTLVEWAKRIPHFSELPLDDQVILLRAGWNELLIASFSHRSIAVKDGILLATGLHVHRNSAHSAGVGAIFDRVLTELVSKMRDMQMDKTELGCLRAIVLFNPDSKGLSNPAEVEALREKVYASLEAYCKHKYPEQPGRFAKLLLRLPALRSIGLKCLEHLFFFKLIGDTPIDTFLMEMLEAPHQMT
Procedure: (§3) Receptor expression plasmids: Full-length coding sequences for human PPARα, PPARγ and PPARδ were inserted into the mammalian expression vector pcDNA3.1+ or pCMX. The full-length coding sequence for human RXRα was inserted into pcDNA3.1+.
(§4) Reporter plasmid: PPREx3-tk-luc (3) was used as the reporter plasmid. It contains three copies of rat Acyl-CoA oxidase peroxisome proliferator response element (PPRE) sequence (AGGACA-A-AGGTCA).
as §2

human PPARγ = target: T5, human PPARγ (Homo sapiens, UniProt P37231); test: as above; format: cell-based; conditions: full-length hPPARγ + RXRalpha, read-out: Transactivation activity FULL-hPPAR + mRXRalpha (EC50-Um) gamma
T5 construct: expressed in transfected cells; host or cells: CV-1
T5 sequence (P37231 1-505): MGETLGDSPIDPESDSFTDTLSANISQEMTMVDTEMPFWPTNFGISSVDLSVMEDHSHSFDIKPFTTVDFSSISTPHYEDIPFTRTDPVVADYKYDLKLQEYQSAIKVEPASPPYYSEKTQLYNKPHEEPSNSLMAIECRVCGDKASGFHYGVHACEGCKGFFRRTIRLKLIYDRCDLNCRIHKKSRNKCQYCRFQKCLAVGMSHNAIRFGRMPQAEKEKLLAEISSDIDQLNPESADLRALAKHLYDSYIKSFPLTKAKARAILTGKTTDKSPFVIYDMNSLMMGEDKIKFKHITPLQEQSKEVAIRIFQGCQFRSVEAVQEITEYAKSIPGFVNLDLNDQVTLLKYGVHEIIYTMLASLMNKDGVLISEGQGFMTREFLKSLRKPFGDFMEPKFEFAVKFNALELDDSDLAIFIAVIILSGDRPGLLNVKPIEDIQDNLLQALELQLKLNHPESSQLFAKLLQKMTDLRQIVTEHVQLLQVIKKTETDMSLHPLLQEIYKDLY
T5 sequence (P19793 1-462 partner): T4 sequence (P19793 1-462 partner)
Procedure: as §3, §4, §2

human PPARδ [4] = target: T6, human PPARδ (Homo sapiens, UniProt Q03181); test: as above; format: cell-based; conditions: full-length hPPARδ + RXRalpha, read-out: Transactivation activity FULL-hPPAR + mRXRalpha (EC50-Um) delta
T6 construct: expressed in transfected cells; host or cells: CV-1
T6 sequence (Q03181 1-441): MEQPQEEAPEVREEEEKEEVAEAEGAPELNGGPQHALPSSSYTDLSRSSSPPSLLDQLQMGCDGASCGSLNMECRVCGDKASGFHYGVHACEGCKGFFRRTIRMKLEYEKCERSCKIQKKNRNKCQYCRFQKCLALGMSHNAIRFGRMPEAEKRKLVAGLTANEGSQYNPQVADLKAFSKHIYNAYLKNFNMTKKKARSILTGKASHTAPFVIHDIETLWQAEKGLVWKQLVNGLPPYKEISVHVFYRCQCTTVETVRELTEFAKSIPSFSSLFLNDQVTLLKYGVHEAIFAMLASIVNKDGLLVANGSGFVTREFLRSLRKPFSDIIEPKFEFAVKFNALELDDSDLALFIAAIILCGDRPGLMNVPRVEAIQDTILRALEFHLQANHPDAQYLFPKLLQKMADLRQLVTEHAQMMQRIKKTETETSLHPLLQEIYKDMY
T6 sequence (P19793 1-462 partner): T4 sequence (P19793 1-462 partner)
Procedure: as §3, §4, §2

[5] = toxicological dosages for 10 days, cited from earlier work; for Peroxisome proliferation in muscle and liver: WT mice

SMILES | EC50 (human PPARα [1]) | EC50 (human PPARγ1) | EC50 (human PPARδ [2]) | EC50 (human PPARα [3]) | EC50 (human PPARγ) | EC50 (human PPARδ [4]) | Peroxisome proliferation in muscle and liver [5] | Incidence and severity of skeletal myopathy ([5]; WT vs PPAR-α KO mice)
Cc1cc(C(=O)CCc2nc(-c3ccc(Cl)cc3O)oc2C(C)C)ccc1OCC(=O)O | > 10 µM | > 10 µM | 32 nM | 3.8 µM | 9.8 µM | 58 nM | – | –
Cc1cc2c(CCc3nc(-c4ccc(Cl)cc4Cl)oc3C(C)C)noc2cc1OCC(=O)O | > 10 µM | > 10 µM | 25 nM | 7.8 µM | > 10 µM | 7 nM | – | –
Cc1cccc(Nc2cc(Cl)nc(SCC(=O)O)n2)c1C [WY-14,643] | – | – | – | – | – | – | significant peroxisome proliferation | –
Cc1cc(SCc2sc(-c3ccc(C(F)(F)F)c(F)c3)nc2C)ccc1OCC(=O)O [GW0742] | – | – | – | – | – | – | significant peroxisome proliferation | greater in WT mice

More lines, main results first:

EC50 (human PPARα [1]) | EC50 (human PPARγ1) | EC50 (human PPARδ [2]) | EC50 (human PPARα [3]) | EC50 (human PPARγ) | EC50 (human PPARδ [4]) | SMILES | Peroxisome proliferation in muscle and liver [5] | Incidence and severity of skeletal myopathy ([5]; WT vs PPAR-α KO mice)
> 10 µM | > 10 µM | > 1000 nM | > 8 µM | > 8 µM | > 300 nM | Cc1cc(C(O)CCc2sc(-c3ccc(C(F)(F)F)cc3)nc2C(C)C)ccc1OCC(=O)O (stereo not drawn) | – | –
> 10 µM | > 10 µM | > 700 nM | – | – | – | Cc1cc([C@H](O)CCc2sc(-c3ccc(C(F)(F)F)cc3)nc2C(C)C)ccc1OCC(=O)O | – | –
> 10 µM | > 10 µM | 45 nM | > 10 µM | > 10 µM | 19 nM | Cc1cc(C(=O)/C=C/c2sc(-c3ccc(C(F)(F)F)cc3)nc2C(C)C)ccc1OCC(=O)O | – | –
3.3 µM | 6.7 µM | 18 nM | – | – | – | Cc1cc(C(=O)CCc2sc(-c3ccc(C(F)(F)F)cc3)nc2C(C)C)ccc1SCC(=O)O | – | –
> 10 µM | > 8 µM | 18 nM | 3.2 µM | 5.8 µM | 2.2 nM | Cc1cc(C(=O)CCc2sc(-c3ccc(C(F)(F)F)cc3)nc2C(C)C)ccc1OCC(=O)O [drawing 63] | – | –
